Assay results reported in PubChem BioAssay (NCI).
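Following 48 hours of exposure in 96-well plates, responses at five concentrations were used to interpolate endpoints linearly. GI50: concentration for 50% inhibition of growth. TGI: total growth inhibition.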

Key:
Experiment in all cases: NCI tumour cell line growth inhibition, 48 h
A549 NSCLC = tested on: A549 NSCLC
HCT-116 colon = tested on: HCT-116 colon
KM12 colon = tested on: KM12 colon
NCI-H460 lung = tested on: NCI-H460 lung
RPMI-8226 leukemia = tested on: RPMI-8226 leukemia
RXF 393 renal = tested on: RXF 393 renal
SK-MEL-28 melanoma = tested on: SK-MEL-28 melanoma
HL-60(TB) leukemia = tested on: HL-60(TB) leukemia

Row | SMILES | GI50 (A549 NSCLC) | TGI (A549 NSCLC) | GI50 (HCT-116 colon) | TGI (HCT-116 colon) | GI50 (KM12 colon) | TGI (KM12 colon) | GI50 (NCI-H460 lung) | TGI (NCI-H460 lung) | GI50 (RPMI-8226 leukemia) | TGI (RPMI-8226 leukemia) | GI50 (RXF 393 renal) | TGI (RXF 393 renal) | GI50 (SK-MEL-28 melanoma) | TGI (SK-MEL-28 melanoma) | GI50 (HL-60(TB) leukemia) | TGI (HL-60(TB) leukemia)
1 | C=C(C)[C@@H]1CCC2=C[C@@H](OC2=O)[C@@H](C(=C)C)C(=O)/C=C(/C)C(=O)C1 | 36.9 µM | > 100 µM | 16100 nM | 42 µM | 24.8 µM | 63.7 µM | 29.1 µM | 92.2 µM | 1760 nM | 17.1 µM | 22.4 µM | 53.3 µM | 34.8 µM | 87.5 µM |  | 
2 | Cc1cc(-c2nc(-c3ccc(OC(F)(F)F)cc3)no2)nn1Cc1ccnc(N2CCN(C3CC3)CC2)c1 | 2.55 µM | > 100 µM | < 10 nM | > 100 µM | 6.88 µM | > 91.9 µM | 4.94 µM | 55.3 µM | 582 nM | > 58.3 µM | > 27.9 µM | > 75.6 µM | 3.6 µM | > 40.2 µM | 2930 nM | > 69.2 µM
3 | O=C(O)CCCCn1cnc2c(=S)nc[nH]c21 |  | > 100 µM |  | > 100 µM |  | > 100 µM |  | > 100 µM |  | > 100 µM |  | > 100 µM |  | > 100 µM |  | 
4 | N#Cc1c(-c2ccccc2)cc(-c2ccccc2)n(CCCCC(=O)NO)c1=O | 3.29 µM | 15.7 µM | 2370 nM | 10.1 µM | 2.8 µM | 13.6 µM | 3.71 µM | 15.2 µM | 1570 nM | 4.61 µM | 1.43 µM | 3.36 µM | 2.8 µM | 10.4 µM | 2390 nM | 6.84 µM
5 | COc1ccc(-c2cc(/C=C3\C(=O)Nc4ccc(OC)cc43)[nH]n2)cc1 | > 100 µM | > 100 µM | 9080 nM | > 100 µM | 1.62 µM | > 100 µM | 5.45 µM | > 100 µM | > 100000 nM | > 100 µM | 55 µM | > 100 µM | > 100 µM | > 100 µM | 821 nM | > 100 µM
6 | CC(=O)OC[C@]12CC[C@@H]([C@@H](C)C(N)=O)[C@@H]1[C@H]1CC[C@@H]3[C@@]4(C)CC[C@H](OC(C)=O)C(C)(C)[C@@H]4CC[C@@]3(C)[C@]1(C)CC2 | 3.97 µM | 47.5 µM | 3570 nM | 14.7 µM | 3.86 µM | 15.8 µM | 13.4 µM | 30.9 µM | 2630 nM | 12.4 µM | 4.28 µM | 16.3 µM | 12 µM | 27.3 µM | 2760 nM | 8.4 µM
7 | COc1ccc(Cc2cnc(NC(=O)c3sc4ccccc4c3Cl)s2)cc1 | 0.571 µM | > 100 µM | 408 nM | > 100 µM | 0.383 µM | > 100 µM | 0.365 µM | > 100 µM | 435 nM | > 42.7 µM | 0.179 µM | 0.579 µM | 3.84 µM | > 100 µM | 256 nM | 0.642 µM
8 | CN1c2ccccc2S(=O)(=O)n2c(COc3ccc(Cl)cc3)nnc21 |  | > 100 µM |  | > 100 µM |  | > 100 µM |  | > 100 µM |  |  |  | > 100 µM |  | > 100 µM |  | > 100 µM
9 | CC(=O)OCC1OC(OC2=C(CC=C(Cl)Cl)C(=O)c3ccccc3C2=O)C(OC(C)=O)C(OC(C)=O)C1OC(C)=O (centres undefined) | 19.5 µM | 41.4 µM | 1740 nM | 3.92 µM | 3.26 µM | 10.1 µM | 12.5 µM | 34.4 µM | 2050 nM | 6.78 µM | 2.53 µM | 8.01 µM | 3.93 µM | 12.8 µM |  | 
10 | COc1cccc(C2C3=C(COC3=O)N(CCO)c3cc4c(cc32)OCCO4)c1 (centres undefined) | 0.207 µM | > 50 µM | 152 nM | 3.16 µM | 0.0798 µM | 1.85 µM | 0.148 µM | 1.19 µM | 56.4 nM |  |  |  | > 50 µM | > 50 µM | 111 nM | 0.422 µM
11 | CC1(C)C(=S)C(C)(C)C1=S |  | > 100 µM |  | > 100 µM |  | > 100 µM |  | > 100 µM |  | > 100 µM |  |  |  | > 100 µM |  | 
12 | CC(=O)OC1CCC2(C)C(=CCC3C2CCC2(C)C(C(C)C(=O)O)CCC32)C1 (centres undefined) |  | > 100 µM |  | > 100 µM |  | > 100 µM |  | > 100 µM |  | > 100 µM |  | > 100 µM |  | > 100 µM |  | 
13 | O=C1C(Cl)=C(Nc2cccc(O)c2)C(=O)N1c1ccc(Cl)c(Cl)c1 | 23.9 µM | 60.6 µM | 18400 nM | 33.9 µM | 17 µM | 32.5 µM | 19.1 µM | 50.5 µM | 15900 nM | 57.7 µM | 14.5 µM | 42.2 µM | 40.6 µM | > 100 µM |  | 
14 | C[C@H]1CC[C@@H]2[C@@H](C)[C@H]3[C@H](C[C@H]4[C@@H]5CC=C6C[C@@H](O)CC[C@]6(C)[C@H]5C[C@H](O)[C@]34C)N2C1 |  | > 100 µM |  | > 100 µM |  | > 100 µM |  | > 100 µM |  | > 100 µM |  | > 100 µM |  | > 100 µM |  | 
15 | COc1ccc(C2=C(c3cc(OC)c(OC)c(OC)c3)C(=O)CC2)cc1 | 0.193 µM | > 100 µM | 156 nM | > 100 µM | 0.0719 µM |  | 0.224 µM |  | 255 nM | 7 µM |  |  | 0.489 µM | > 100 µM | 110 nM | 1.21 µM
16 | COC(=O)[C@H](CC(C)C)NC(=O)NC(=O)NC(=O)CI | 20.3 µM | 39.6 µM | 10000 nM | 22.8 µM | 15.8 µM | 32.8 µM | 18.7 µM | 41.5 µM | 2920 nM | 7.75 µM | 2.46 µM | 6.54 µM | 5.64 µM | 19.1 µM |  | 
17 | CN(C)CCN=Cc1c2ccccc2c(=O)n2c1oc1ccccc12 | 4.13 µM | 20.7 µM |  |  | 8.8 µM | 21.7 µM | 2.94 µM | 11.7 µM | 11300 nM | > 100 µM | 12.7 µM | 28.6 µM | 10.5 µM | 23.1 µM | 10900 nM | 55 µM
